Legend:
human GLP-1 receptor [1] = biological target: T1, human GLP-1 receptor (Homo sapiens, UniProt P43220); experiment: In vitro potency: stimulation of cAMP formation in membranes expressing the human GLP-1 receptor (AlphaScreen cAMP Assay); assay type: biochemical; set-up: expressed in transfected cells; membranes; settings: purified plasma membranes from BHK467-12A (tk-ts13) expressing the human GLP-1 receptor
Experimental: Purified plasma membranes from a stable transfected cell line, BHK467-12A (tk-ts13), expressing the human GLP-1 receptor were stimulated with the GLP-1 receptor agonist derivative in question, and the potency of cAMP production was measured using the AlphaScreen™ cAMP Assay Kit from Perkin Elmer Life Sciences. The basic principle of The AlphaScreen Assay is a competition between endogenous cAMP and exogenously added biotin-cAMP. The capture of cAMP is achieved by using a specific antibody conjugated to acceptor beads.
A stable transfected cell line and a high expressing clone were selected for screening. The cells were grown at 5% CO2 in DMEM, 5% FCS, 1% Pen/Strep (Penicillin/Streptomycin) and 0.5 mg/ml of the selection marker G418.
Cells at approximate 80% confluence were washed 2× with PBS and harvested with Versene (aqueous solution of the tetrasodium salt of ethylenediaminetetraacetic acid), centrifuged 5 min at 1000 rpm and the supernatant removed. The additional steps were all made on ice. The cell pellet was homogenised by the Ultrathurax for 20-30 sec. in 10 ml of Buffer 1 (20 mM Na-HEPES, 10 mM EDTA, pH=7.4), centrifuged 15 min at 20.000 rpm and the pellet resuspended in 10 ml of Buffer 2 (20 mM Na-HEPES, 0.1 mM EDTA, pH=7.4). […] The protein concentration was determined and the membranes stored at −80° C. until use. […]
Target sequence in this assay (P43220 24-463): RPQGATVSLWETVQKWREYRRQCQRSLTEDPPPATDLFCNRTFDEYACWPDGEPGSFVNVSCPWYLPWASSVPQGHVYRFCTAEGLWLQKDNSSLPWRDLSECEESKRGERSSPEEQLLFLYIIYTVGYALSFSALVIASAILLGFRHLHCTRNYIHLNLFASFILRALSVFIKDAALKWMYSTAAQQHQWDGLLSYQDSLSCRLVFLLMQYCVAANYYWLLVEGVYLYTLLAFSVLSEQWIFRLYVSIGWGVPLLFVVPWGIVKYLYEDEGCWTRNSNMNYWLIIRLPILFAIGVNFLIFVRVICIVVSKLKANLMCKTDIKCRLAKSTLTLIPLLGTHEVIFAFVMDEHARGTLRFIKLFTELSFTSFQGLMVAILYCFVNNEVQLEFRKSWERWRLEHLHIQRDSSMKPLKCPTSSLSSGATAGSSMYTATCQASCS

human GLP-1 receptor [2] = biological target: T1, human GLP-1 receptor; experiment: GLP-1 receptor binding: displacement of 125I-GLP-1 (SPA) at low and high albumin; set-up: expressed in transfected cells; membranes; settings: 2.0% HSA; displacement of 125I-GLP-1, BHK tk-ts13 membranes
Experimental: The binding affinity of the GLP-1 receptor agonist derivatives of Examples 1-12 to the human GLP-1 receptor was measured by way of their ability to displace of ^125I-GLP-1 from the receptor.
In order to test the binding of the derivatives to albumin, the assay was performed with a low concentration of albumin (0.005%—corresponding to the residual amount thereof in the tracer), as well as with a high concentration of albumin (2.0% added).
Species (in vitro): Hamster
Biological End Point: Receptor Binding
A stable transfected cell line and a high expressing clone were selected for screening. The cells were grown at 5% CO2 in DMEM, 10% FCS, 1% Pen/Strep (Penicillin/Streptomycin) and 1.0 mg/ml of the selection marker G418.
The cells (approx. 80% confluence) were washed twice in PBS and harvested with Versene (aqueous solution of the tetrasodium salt of ethylenediaminetetraacetic acid), following which they were separated by centrifugation at 1000 rpm for 5 min. The cells/cell pellet must be kept on ice to the extent possible in the subsequent steps. […] The resulting pellet was resuspended in Buffer 2, and the protein concentration was determined. […]
Test compounds, membranes, SPA-particles and [^125I]-GLP-1(7-36)NH2 were diluted in assay buffer. […] The plates were centrifuged (1500 rpm, 10 min) and counted in Topcounter. […]

EC50 (human GLP-1 receptor [1]): > 8 nM | IC50 (human GLP-1 receptor [2]): > 800 nM
Structure (SMILES): CC[C@H](C)[C@H](NC(=O)[C@H](Cc1ccccc1)NC(=O)[C@H](CCC(=O)O)NC(=O)[C@H](CCCCNC(=O)COCCOCCNC(=O)COCCOCCNC(=O)CC[C@H](NC(=O)CCCCCCCCCCCCCCCCC(=O)O)C(=O)O)NC(=O)[C@H](C)NC(=O)[C@H](C)NC(=O)[C@H](CCC(N)=O)NC(=O)CNC(=O)[C@H](CCC(=O)O)NC(=O)[C@H](CC(C)C)NC(=O)[C@H](Cc1ccc(O)cc1)NC(=O)[C@H](CO)NC(=O)[C@H](CO)NC(=O)[C@@H](NC(=O)[C@H](CC(=O)O)NC(=O)[C@H](CO)NC(=O)[C@@H](NC(=O)[C@H](Cc1ccccc1)NC(=O)[C@@H](NC(=O)CNC(=O)[C@H](CCC(=O)O)NC(=O)CCCC(=O)c1ccccc1)[C@@H](C)O)[C@@H](C)O)C(C)C)C(=O)N[C@@H](C)C(=O)N[C@@H](Cc1c[nH]c2ccccc12)C(=O)N[C@@H](CC(C)C)C(=O)N[C@H](C(=O)N[C@@H](CCCNC(=N)N)C(=O)NCC(=O)N[C@@H](CCCNC(=N)N)C(=O)NCC(=O)O)C(C)C [Example 11, N^9-(5-oxo-5-phenylpentanoyl), N^ε26-[2-[2-[2-[[2-[2-[2-[[(4S)-4-carboxy-4-(17-carboxyheptadecanoylamino)butanoyl]amino]ethoxy]ethoxy]acetyl]amino]ethoxy]ethoxy]acetyl]-[Arg^34]-GLP-1-(9-37)-peptide]

Reference: patent US20120329711A1, “GLP-1 RECEPTOR AGONIST COMPOUNDS WITH A MODIFIED N-TERMINUS” (Nordisk A/S, priority 2009, published 2012)
